From paper PMC5218480 (PLoS ONE, 2017)

System: MV-4-11 cells
Assay: Gene expression microarray analysis (Affymetrix PrimeView) and GSEA
Format: cell-based, human
Parameters: RFU PODN (11730768_x_at) / Fold change /veh PODN (11730768_x_at) / RFU LINC00158 (11744669_a_at) / Fold change /veh LINC00158 (11744669_a_at) / RFU DUSP10 (11751237_a_at) / Fold change /veh DUSP10 (11751237_a_at) / RFU ID3 (11757404_x_at) / Fold change /veh ID3 (11757404_x_at) / RFU PLEKHG5 (11737974_s_at) / Fold change /veh PLEKHG5 (11737974_s_at) / RFU LRRC4B (11730491_at) / Fold change /veh LRRC4B (11730491_at) / RFU GIMAP4 (11747438_a_at) / Fold change /veh GIMAP4 (11747438_a_at) / RFU KRT8 (11758183_x_at) / Fold change /veh KRT8 (11758183_x_at) / RFU CNN1 (11734310_a_at) / Fold change /veh CNN1 (11734310_a_at) / RFU VPS37D (11726825_at) / Fold change /veh VPS37D (11726825_at) / RFU C10orf10 (11716522_x_at) / Fold change /veh C10orf10 (11716522_x_at) / RFU KIR2DL2 /// KIR2DL4 /// KIR2DL5A /// KIR2DL5B /// KIR2DS1 /// KIR2DS2 /// KIR2DS3 /// KIR2DS4 /// KIR3DL3 /// KIR3DL3 /// KIR3DS1 (11738374_at) / Fold change /veh KIR2DL2 /// KIR2DL4 /// KIR2DL5A /// KIR2DL5B /// KIR2DS1 /// KIR2DS2 /// KIR2DS3 /// KIR2DS4 /// KIR3DL3 /// KIR3DL3 /// KIR3DS1 (11738374_at) / RFU C1QL1 (11718748_at) / Fold change /veh C1QL1 (11718748_at) / RFU TMPRSS4 (11747572_a_at) / Fold change /veh TMPRSS4 (11747572_a_at) / RFU HAMP (11756126_x_at) / Fold change /veh HAMP (11756126_x_at) / RFU RNFT2 (11725882_a_at) / Fold change /veh RNFT2 (11725882_a_at) / RFU NR4A2 (11747474_a_at) / Fold change /veh NR4A2 (11747474_a_at) / RFU ABCC12 (11746883_a_at) / Fold change /veh ABCC12 (11746883_a_at) / RFU TMEM136 (11760407_x_at) / Fold change /veh TMEM136 (11760407_x_at) / RFU CLDN22 /// WWC2 (11732394_at) / Fold change /veh CLDN22 /// WWC2 (11732394_at) / RFU HLA-DPB1 (11760878_x_at) / Fold change /veh HLA-DPB1 (11760878_x_at) / RFU SPINT1 (11716480_a_at) / Fold change /veh SPINT1 (11716480_a_at) / RFU GAP43 (11754022_s_at) / Fold change /veh GAP43 (11754022_s_at) / RFU A4GNT (11735810_at) / Fold change /veh A4GNT (11735810_at) / RFU PRB3 (11715151_x_at) / Fold change /veh PRB3 (11715151_x_at) / RFU TUBB4B (11761932_at) / Fold change /veh TUBB4B (11761932_at) / RFU CAPN14 (11732068_a_at) / Fold change /veh CAPN14 (11732068_a_at) / RFU TMCC2 (11721928_a_at) / Fold change /veh TMCC2 (11721928_a_at) / RFU IRGQ (11745062_a_at) / Fold change /veh IRGQ (11745062_a_at) / RFU FAM174B (11720279_a_at) / Fold change /veh FAM174B (11720279_a_at) / RFU TMPRSS4 (11748680_a_at) / Fold change /veh TMPRSS4 (11748680_a_at) / RFU FAM212B (11763350_a_at) / Fold change /veh FAM212B (11763350_a_at) / RFU PLEKHG5 (11743358_a_at) / Fold change /veh PLEKHG5 (11743358_a_at) / RFU ZSCAN30 (11745921_a_at) / Fold change /veh ZSCAN30 (11745921_a_at) / RFU CMKLR1 (11741424_a_at) / Fold change /veh CMKLR1 (11741424_a_at) / RFU LOC101060620 /// MAPK8IP1 (11723275_at) / Fold change /veh LOC101060620 /// MAPK8IP1 (11723275_at) / RFU SPTSSB (11747773_x_at) / Fold change /veh SPTSSB (11747773_x_at) / RFU PRSS12 (11739890_at) / Fold change /veh PRSS12 (11739890_at) / RFU BIN1 (11741810_x_at) / Fold change /veh BIN1 (11741810_x_at) / RFU WNT11 (11732464_a_at) / Fold change /veh WNT11 (11732464_a_at) / RFU C10orf10 (11716521_a_at) / Fold change /veh C10orf10 (11716521_a_at) / RFU C5orf56 (11738089_at) / Fold change /veh C5orf56 (11738089_at) / RFU CYB561 (11721691_x_at) / Fold change /veh CYB561 (11721691_x_at) / RFU ANKRD19P (11752326_a_at) / Fold change /veh ANKRD19P (11752326_a_at) / RFU OR2T12 /// OR2T33 /// OR2T8 (11738714_s_at) / Fold change /veh OR2T12 /// OR2T33 /// OR2T8 (11738714_s_at) / RFU VCAN (11748164_a_at) / Fold change /veh VCAN (11748164_a_at) / RFU JSRP1 (11732532_at) / Fold change /veh JSRP1 (11732532_at) / RFU KRTAP10-11 (11738290_x_at) / Fold change /veh KRTAP10-11 (11738290_x_at) / RFU MYO3A (11730013_a_at) / Fold change /veh MYO3A (11730013_a_at) / RFU EBF3 (11725865_a_at) / Fold change /veh EBF3 (11725865_a_at) / RFU CAMK2N1 (11719241_x_at) / Fold change /veh CAMK2N1 (11719241_x_at) / RFU C5orf56 (11738088_a_at) / Fold change /veh C5orf56 (11738088_a_at) / RFU OLFML3 (11715873_a_at) / Fold change /veh OLFML3 (11715873_a_at) / RFU LOC100653217 /// NTM (11731650_a_at) / Fold change /veh LOC100653217 /// NTM (11731650_a_at) / RFU MAPK11 (11762145_a_at) / Fold change /veh MAPK11 (11762145_a_at) / RFU FIZ1 (11724087_x_at) / Fold change /veh FIZ1 (11724087_x_at) / RFU OASL (11726364_x_at) / Fold change /veh OASL (11726364_x_at) / RFU SOX15 (11748057_x_at) / Fold change /veh SOX15 (11748057_x_at) / RFU CD79A (11719716_a_at) / Fold change /veh CD79A (11719716_a_at) / RFU HIST1H1D (11736915_at) / Fold change /veh HIST1H1D (11736915_at) / RFU CASKIN2 (11723855_a_at) / Fold change /veh CASKIN2 (11723855_a_at) / RFU LOC730098 (11760151_x_at) / Fold change /veh LOC730098 (11760151_x_at) / RFU OR4N2 (11742367_at) / Fold change /veh OR4N2 (11742367_at) / RFU PRRT2 (11749266_a_at) / Fold change /veh PRRT2 (11749266_a_at) / RFU SNX32 (11753110_a_at) / Fold change /veh SNX32 (11753110_a_at) / RFU CDHR5 (11726645_a_at) / Fold change /veh CDHR5 (11726645_a_at) / RFU RCAN1 (11760418_a_at) / Fold change /veh RCAN1 (11760418_a_at) / RFU FAM167A (11723789_a_at) / Fold change /veh FAM167A (11723789_a_at) / RFU FAM26E (11764081_at) / Fold change /veh FAM26E (11764081_at) / RFU ISYNA1 (11749810_s_at) / Fold change /veh ISYNA1 (11749810_s_at) / RFU ACY1 (11761880_at) / Fold change /veh ACY1 (11761880_at) / RFU 11764098_at / Fold change /veh 11764098_at / RFU SAMD14 (11745864_x_at) / Fold change /veh SAMD14 (11745864_x_at) / RFU NPB (11741838_a_at) / Fold change /veh NPB (11741838_a_at) / RFU TMPRSS6 (11731388_a_at) / Fold change /veh TMPRSS6 (11731388_a_at) / RFU KRTAP10-2 (11738614_at) / Fold change /veh KRTAP10-2 (11738614_at) / RFU ARHGAP8 /// PRR5-ARHGAP8 (11727945_x_at) / Fold change /veh ARHGAP8 /// PRR5-ARHGAP8 (11727945_x_at) / RFU KRTAP5-7 /// NADSYN1 (11734609_at) / Fold change /veh KRTAP5-7 /// NADSYN1 (11734609_at) / RFU RASL12 (11751679_a_at) / Fold change /veh RASL12 (11751679_a_at) / RFU CDKN2B (11736163_a_at) / Fold change /veh CDKN2B (11736163_a_at) / RFU PRF1 (11729649_at) / Fold change /veh PRF1 (11729649_at) / RFU, ZNF638 /// ZNF638-IT1 / Fold change vs veh, ZNF638 /// ZNF638-IT1 / RFU, PANK3 / Fold change vs veh, PANK3 / RFU, SH3YL1 / Fold change vs veh, SH3YL1 / RFU, ZEB2 / Fold change vs veh, ZEB2 / RFU, NRIP1 / Fold change vs veh, NRIP1 / RFU, PTTG1IP / Fold change vs veh, PTTG1IP / RFU, CAPN2 / Fold change vs veh, CAPN2 / RFU, MED14 / Fold change vs veh, MED14 / RFU, SNORA58 / Fold change vs veh, SNORA58 / RFU, C1orf63 / Fold change vs veh, C1orf63 / RFU, LRRFIP1 / Fold change vs veh, LRRFIP1 / RFU, NDUFAF7 / Fold change vs veh, NDUFAF7 / RFU, SLC12A2 / Fold change vs veh, SLC12A2 / RFU, IBTK / Fold change vs veh, IBTK / RFU, ESF1 / Fold change vs veh, ESF1 / Fold change vs veh, TMEM50B / RFU, TAOK1 / Fold change vs veh, TAOK1 / RFU, ACBD3 / Fold change vs veh, ACBD3 / RFU, TMA16 / Fold change vs veh, TMA16 / RFU, RWDD3 / Fold change vs veh, RWDD3 / RFU, BCAT1 / Fold change vs veh, BCAT1 / RFU, EDEM3 / Fold change vs veh, EDEM3 / RFU, TMEM33 / Fold change vs veh, TMEM33 / RFU, WDR75 / Fold change vs veh, WDR75 / RFU, AHCTF1 / Fold change vs veh, AHCTF1 / RFU, TFRC / Fold change vs veh, TFRC / RFU, ZDHHC17 / Fold change vs veh, ZDHHC17 / RFU, NOM1 / Fold change vs veh, NOM1 / RFU, ARL8B / Fold change vs veh, ARL8B / RFU, ZBTB11 / Fold change vs veh, ZBTB11 / RFU, TAMM41 / Fold change vs veh, TAMM41 / RFU, KIAA1704 /// LOC100996395 / Fold change vs veh, KIAA1704 /// LOC100996395 / RFU, ING1 / Fold change vs veh, ING1 / RFU, TRMT61B / Fold change vs veh, TRMT61B / RFU, FUBP3 / Fold change vs veh, FUBP3 / RFU, TP53 / Fold change vs veh, TP53 / RFU, TNKS2 / Fold change vs veh, TNKS2 / RFU, ZFP14 / Fold change vs veh, ZFP14 / RFU, ACTR2 / Fold change vs veh, ACTR2 / RFU, PPP3R1 / Fold change vs veh, PPP3R1 / RFU, PIK3R1 / Fold change vs veh, PIK3R1 / RFU, HNRNPA1 / Fold change vs veh, HNRNPA1 / RFU, RNF170 / Fold change vs veh, RNF170 / RFU, ZNF28 / Fold change vs veh, ZNF28 / RFU, RNGTT / Fold change vs veh, RNGTT / RFU, OGT / Fold change vs veh, OGT / RFU, BRD1 / Fold change vs veh, BRD1 / RFU, MARS / Fold change vs veh, MARS / RFU, ZNF655 / Fold change vs veh, ZNF655 / RFU, FAHD1 / Fold change vs veh, FAHD1 / RFU, BDP1 / Fold change vs veh, BDP1 / RFU, LRRCC1 / Fold change vs veh, LRRCC1 / RFU, ARID1A / Fold change vs veh, ARID1A / RFU, ZNF146 / Fold change vs veh, ZNF146 / RFU, ZNF330 / Fold change vs veh, ZNF330 / RFU, GPN3 / Fold change vs veh, GPN3 / RFU, C9orf123 / Fold change vs veh, C9orf123 / RFU, N4BP2L2 / Fold change vs veh, N4BP2L2 / RFU, ARFIP1 / Fold change vs veh, ARFIP1 / RFU, FAM179B / Fold change vs veh, FAM179B / RFU, BCL10 / Fold change vs veh, BCL10 / RFU, UHRF1BP1L / Fold change vs veh, UHRF1BP1L / RFU, BET1 / Fold change vs veh, BET1 / RFU, CNOT2 / Fold change vs veh, CNOT2 / RFU, ZNF268 / Fold change vs veh, ZNF268 / Fold change vs veh, ZNF507 / RFU, DGCR2 / Fold change vs veh, DGCR2 / RFU, WDSUB1 / Fold change vs veh, WDSUB1 / Fold change vs veh, HSP90B1 /// MIR3652 / RFU, ADSS / Fold change vs veh, ADSS / RFU, GK / Fold change vs veh, GK / RFU, ZNF148 / Fold change vs veh, ZNF148 / RFU, TAF9 / Fold change vs veh, TAF9 / RFU, SLC1A5 / Fold change vs veh, SLC1A5 / RFU, SLMO2 / Fold change vs veh, SLMO2 / RFU, ABCC4 / Fold change vs veh, ABCC4 / RFU, LOC101060439 /// RAP1B / Fold change vs veh, LOC101060439 /// RAP1B / RFU, RFX7 / Fold change vs veh, RFX7 / RFU, GTPBP10 / Fold change vs veh, GTPBP10 / RFU, CNEP1R1 / Fold change vs veh, CNEP1R1 / RFU, BIVM-ERCC5 /// ERCC5 / Fold change vs veh, BIVM-ERCC5 /// ERCC5 / RFU, ILF3 / Fold change vs veh, ILF3 / RFU 11762660_at / Fold change /veh 11762660_at / RFU VCAN (11757783_s_at) / Fold change /veh VCAN (11757783_s_at) / RFU DDX43 (11728927_at) / Fold change /veh DDX43 (11728927_at) / RFU KRT8 (11758188_x_at) / Fold change /veh KRT8 (11758188_x_at) / RFU NKD1 (11759106_at) / Fold change /veh NKD1 (11759106_at) / RFU SRD5A1 (11742802_a_at) / Fold change /veh SRD5A1 (11742802_a_at) / RFU TPSAB1 /// TPSB2 (11721975_s_at) / Fold change /veh TPSAB1 /// TPSB2 (11721975_s_at) / RFU GSTM3 (11746129_a_at) / Fold change /veh GSTM3 (11746129_a_at) / RFU IL23R (11737362_x_at) / Fold change /veh IL23R (11737362_x_at) / RFU TMEM51 (11727254_a_at) / Fold change /veh TMEM51 (11727254_a_at) / RFU PIWIL2 (11732686_x_at) / Fold change /veh PIWIL2 (11732686_x_at) / RFU ORM1 (11744905_x_at) / Fold change /veh ORM1 (11744905_x_at) / RFU CCDC152 (11743942_at) / Fold change /veh CCDC152 (11743942_at) / RFU ECM1 (11717891_a_at) / Fold change /veh ECM1 (11717891_a_at) / RFU IL23R (11748794_a_at) / Fold change /veh IL23R (11748794_a_at) / RFU TNFAIP8L3 (11732012_x_at) / Fold change /veh TNFAIP8L3 (11732012_x_at) / RFU MBOAT4 (11741988_at) / Fold change /veh MBOAT4 (11741988_at) / RFU 11764193_at / Fold change /veh 11764193_at / RFU TMEM53 (11763286_at) / Fold change /veh TMEM53 (11763286_at) / RFU MAGEB2 (11727129_at) / Fold change /veh MAGEB2 (11727129_at) / RFU TMEM200A (11744735_a_at) / Fold change /veh TMEM200A (11744735_a_at) / RFU CCDC152 (11751479_a_at) / Fold change /veh CCDC152 (11751479_a_at) / RFU FAM211A (11726209_a_at) / Fold change /veh FAM211A (11726209_a_at) / RFU RGS16 (11746705_a_at) / Fold change /veh RGS16 (11746705_a_at) / RFU VCAN (11755009_s_at) / Fold change /veh VCAN (11755009_s_at) / RFU RHOB (11743442_s_at) / Fold change /veh RHOB (11743442_s_at) / RFU RGS16 (11720943_a_at) / Fold change /veh RGS16 (11720943_a_at) / RFU RGS16 (11720944_at) / Fold change /veh RGS16 (11720944_at) / RFU, VPS4B / Fold change vs veh, VPS4B / RFU, CREB1 / Fold change vs veh, CREB1 / RFU, DNAJC13 / Fold change vs veh, DNAJC13 / RFU, GNAQ / Fold change vs veh, GNAQ / RFU, CDK5R1 / Fold change vs veh, CDK5R1 / RFU, ZRANB3 / Fold change vs veh, ZRANB3 / RFU, CUL4A / Fold change vs veh, CUL4A / RFU, CCNY / Fold change vs veh, CCNY / RFU, UFL1 / Fold change vs veh, UFL1 / RFU, COG3 / Fold change vs veh, COG3 / RFU, DIAPH2 / Fold change vs veh, DIAPH2 / RFU, SKA2 / Fold change vs veh, SKA2 / RFU, AFF3 / Fold change vs veh, AFF3 / RFU, LMF1 / Fold change vs veh, LMF1 / RFU, IPO11 / Fold change vs veh, IPO11 / RFU, DFFB / Fold change vs veh, DFFB / RFU, FOXP1 / Fold change vs veh, FOXP1 / RFU, CARD8 / Fold change vs veh, CARD8 / RFU, STRN3 / Fold change vs veh, STRN3 / RFU, ADK / Fold change vs veh, ADK / RFU, RASSF2 / Fold change vs veh, RASSF2 / RFU, WIPF1 / Fold change vs veh, WIPF1 / RFU, LARP1B / Fold change vs veh, LARP1B / RFU, RASA1 / Fold change vs veh, RASA1 / RFU, RB1 / Fold change vs veh, RB1 / RFU, PPFIA1 / Fold change vs veh, PPFIA1 / RFU, MAT2A / Fold change vs veh, MAT2A / RFU, CCT5 / Fold change vs veh, CCT5 / RFU, WDR92 / Fold change vs veh, WDR92 / RFU, CUX1 / Fold change vs veh, CUX1 / RFU, TTC7A / Fold change vs veh, TTC7A / RFU, TMEM135 / Fold change vs veh, TMEM135 / RFU, DEPTOR / Fold change vs veh, DEPTOR / RFU, CPM / Fold change vs veh, CPM / RFU, DNAJB6 / Fold change vs veh, DNAJB6 / RFU, CACNA2D3 / Fold change vs veh, CACNA2D3 / RFU, DTX4 / Fold change vs veh, DTX4 / RFU, TFCP2 / Fold change vs veh, TFCP2 / RFU, GMCL1 /// GMCL1P1 / Fold change vs veh, GMCL1 /// GMCL1P1 / RFU, AEBP2 / Fold change vs veh, AEBP2 / RFU, SNHG1 /// SNORD22 /// SNORD25 /// SNORD26 /// SNORD27 /// SNORD28 /// SNORD29 /// SNORD31 / Fold change vs veh, SNHG1 /// SNORD22 /// SNORD25 /// SNORD26 /// SNORD27 /// SNORD28 /// SNORD29 /// SNORD31 / Fold change (Aza/veh), C12orf56 (ProbeSet 11735607_a_at) / Fold change (ACY-1035/veh), C12orf56 (ProbeSet 11735607_a_at) / Fold change (Aza/veh), FGFR1OP (ProbeSet 11751329_s_at) / Fold change (ACY-1035/veh), FGFR1OP (ProbeSet 11751329_s_at) / Fold change (Aza/veh), VPS36 (ProbeSet 11739960_a_at) / Fold change (ACY-1035/veh), VPS36 (ProbeSet 11739960_a_at) / RFU SYPL1 (11715823_x_at) / Fold change /veh SYPL1 (11715823_x_at) / RFU IGFBP7 (11715501_s_at) / Fold change /veh IGFBP7 (11715501_s_at) / RFU REEP3 (11722064_at) / Fold change /veh REEP3 (11722064_at) / RFU IGLL1 (11728026_x_at) / Fold change /veh IGLL1 (11728026_x_at): dose or concentration left out as unconfirmed
Conditions: ProbeSet 11758170_s_at; LIST D

## Nc1ncn([C@@H]2O[C@H](CO)[C@@H](O)[C@H]2O)c(=O)n1 [azacitidine]
  Fold change vs veh, DIAPH2: 0.72
